Reference: patent publication US5912183A, “Peptide inhibitors of mitogenesis and motogenesis” (Pharmacia & Upjohn S.p.A., priority 1993, dated 1999)
Residues, ends and D or L forms follow the SMILES beside them.

Tested on: binding of PI 3-kinase holoenzyme to HGF/SF receptor
Assay: Competition of phosphopeptides with PI 3-kinase holoenzyme (A549 cytosolic extracts) for association with recombinant HGF/SF receptor (PI 3-kinase activity assay)
Parameters: species or system human
Details: summary statement in the description
Experimental: FIG. 3. Inhibition of binding of PI 3-kinase holoenzyme to HGF/SF receptor by tyrosine-phosphorylated peptides. The phosphopeptides which efficiently out-competed p85 (FIG. 1) were assayed for the ability to interfere with binding of the PI 3-kinase holoenzyme to the HGF/SF receptor. Cytosolic extracts from three days-starved A549 cells were pre-incubated with each of the phosphopeptides (10 μM) prior to incubation with the immobilized recombinant HGF/SF receptor. The presence of receptor-associated PI 3-kinase in the immunocomplexes was determined by PI 3-kinase activity assay, as described in Materials and Methods of Example 4. The position of the phosphatidylinositol-3-phosphate (PIP) product of the PI 3-kinase reaction is indicated.
In vitro association experiments. Sf9 cells expressing the recombinant HGF/SF receptor (approximately 4×10^6 cells/point) were lysed 36 hours after infection in buffer A (10 mM Tris-HCl buffer pH 7.5, 10% glycerol, 1% Triton X-100, 150 mM NaCl, 5 mM EDTA), supplemented with 0.2 mM phenyl-methylsulfonyl fluoride, 1 μg/ml leupeptin, 0.1 TIU/ml aprotinin and 1 μg/ml pepstatin. […]
The presence of the p85 subunit of the PI 3-kinase in the receptor immunoprecipitate was determined by: i) labelling of the receptor and associated proteins with [γ-^32 P]ATP by in vitro kinase assay; ii) Western immunoblotting; iii) PI 3-kinase activity assay. […]

CSCC[C@H](NC(=O)[C@@H](NC(=O)[C@H](CCC(=O)O)NC(=O)[C@@H](N)Cc1ccc(OP(=O)(O)O)cc1)C(C)C)C(=O)N[C@@H](CC(C)C)C(=O)N[C@@H](CCCCN)C(=O)N[C@@H](CS)C(=O)N[C@@H](Cc1c[nH]c2ccccc12)C(=O)O [H-Tyr*-Glu-Val-Met-Leu-Lys-Cys-Trp-OH] (HELM PEPTIDE1{[N[C@@H](Cc1ccc(OP(=O)(O)O)cc1)C(=O)[*:2]].E.V.M.L.K.C.W}$$$$V2.0)
Binding to PI 3-kinase: capable of binding to PI 3-kinase
